# Experimental data from the pKa sets of Baltruschat and Czodrowski (2020).
# Where a SMILES comes first, the peptide text is derived from it.
# Conditions: basic group
row,SMILES,pKa
1,Brc1ccc(-c2cnc(-c3ccccc3)o2)cc1,0.65
2,Cc1ccc2cccc(C)c2n1,4.1
3,Nc1cc(N)c2ccccc2n1,9.45
4,Cc1nnc(C)c(C)c1C,5.36
5,CN(C)CCc1nnn[n-]1,9.39
6,CC(C)[NH+](CCC(c1ccccc1)c1ccccn1)C(C)C (centres undefined),3.2
7,NCCCC[NH2+]CCCN,9.86
8,[NH3+]CCCCc1cccnc1,5.52
9,Cc1cc(C)c(C[NH3+])cc1N,4.57
10,OCCCc1ccccn1,5.71
11,CCOCCn1c(CN2CCN(CCCCn3cccn3)CC2)nc2ccccc21,7.9
12,Cn1cnc2cncnc21,2.42
13,Clc1nc2cc3c(cc2[nH]1)CCCC3,2.68
14,N/C(=N\O)C(N)Cc1ccccc1 (centres undefined),7.06
15,Cc1cc2c(C)ccnc2c2ncccc12,5.71
16,CCSCCN,9.48
17,CC(=O)c1ccc(/N=N/c2c(N)n[nH]c2N)cc1,3.32
18,Cc1ccc(Cl)cc1/C(=N/CCCN(C)C)c1ccccc1,8.8
19,Cc1c(Br)cc(N)cc1Br,2.87
20,N=C(c1ccccc1)c1ccccc1O,5
21,Cc1ccc(NC(C)(C)C)cc1,7.3

row,SMILES,pKa
1,CC[NH2+]CCN,7.52
2,Cc1cc(C)c(CN)cc1N,9.77
3,Nc1ccc2ccnnc2c1,4.85
4,[O-]c1nc([O-])c2[nH]nnc2[nH+]1,4.2
5,Nc1cccc2cn[nH]c12,3.05
6,Oc1ccc2nnccc2c1,3.65
7,C[NH+](C)CCCCN1C=Nc2cccc3cccc1c23,5.3
8,CCN(CC#N)CC#N,3.98
9,c1ccc2[nH]cnc2c1,5.51
10,C[C@H]1CC[C@H]2[C@H](C)CC[C@@H](C(=O)[O-])N2C1,10.8
11,CN1CC[C@]23c4c5ccc(O)c4O[C@H]2[C@@H](O)C=C[C@H]3[C@H]1[C@H]5O,7.13
12,c1ccc2[nH]c(-c3ccncc3)nc2c1,10.8
13,CC(C=C(c1cccs1)c1cccs1)N(C)C (centres undefined),8.95
14,CN1[C@H]2CC=C(C(=O)[O-])[C@@H]1CC2,10.8
15,CNC(=O)/C=C(\c1ccc2nc(N)n(C(C)C)c2c1)c1cccc(F)c1F,6.69
16,CCCCCCCCCCCCCNCCCCCCCCCCCCC,11
17,c1cnc2c(c1)ccc1[nH+]cccc12,1
18,C[NH+](C)CCc1nnn[nH]1,-2.8
19,CCCCc1ccc(C(=O)[O-])nc1,5.7
20,Cc1nc2cccc(N)c2n1C,6.66
21,CN(C)C[C@H]1[C@@H]2CC[C@@](C)([C@H]1N)C2(C)C,9.84

row,SMILES,pKa
1,COc1ccc2c(c1O)CN(C)CCc1cc3c(cc1C(=O)C2)OCO3,9
2,O=C([O-])Cc1nc2ccccc2[nH]1,4.1
3,Cc1ccc2c(c1)ncn2[C@H]1O[C@@H](CO)[C@H](O)[C@@H](O)[C@@H]1O,4.32
4,NC1CCN(Cc2ccccc2)CC1,9.79
5,CC(=O)Nc1c(C)n(C)n(-c2ccccc2)c1=O,0.18
6,C=CC(C)(C)N(C)C(C)(C)C,11.3
7,CCCN(CCC)CC(=O)Nc1c(C)cccc1C,7.68
8,C/C(=C\C=C\C(C)C(=O)[O-])[C@H]1CN[C@H](C(=O)[O-])[C@H]1CC(=O)[O-] (some centres undefined),9.82
9,CN(C)CCOC(C)(c1ccccc1)c1ccccn1 (centres undefined),9.2
10,OC[C@@H]1CCN2CC[C@H](O)[C@H]12,10.2
11,Cc1ccccc1NC1CCCCC1,5.34
12,CCCc1ncc[nH]1,8.02
13,CCCN1C=CC(=CC=C2C=CC(=O)C=C2)C=C1,8.5
14,CCCCCCCP(=O)(CCCCCCC)NC1CCCCC1,4.87
15,Cc1nc([O-])n[nH]1,9.43
16,N[C@H]1C[C@@H]2CCCC[C@H]2C[C@@H]1[NH3+],6.97
17,CNCC(O)CO (centres undefined),9.55
18,CC(C)(C)c1cccnc1,5.82
19,N#Cc1cccc(N)c1,2.83
20,Cc1n[nH]c(C)c1C,4.82
21,CCc1cnc2c(ccc3cccnc32)c1,4.98

row,SMILES,pKa
1,CC(C)(N)CN,10
2,COC(=O)N1c2ccccc2[C@@]23CCN4CC=C[C@]5(CC[C@]12[C@](O)(C(=O)OC)C5O)[C@H]43 (some centres undefined),5.63
3,C1CCCNCCC1,10.8
4,CN(C)c1ccc(C(=N)c2ccc(N(C)C)cc2)cc1,10.7
5,NC(CC(=O)[O-])C(=O)NC(CC(=O)[O-])C(=O)[O-] (stereo not drawn) (H-Asp-Asp-OH; configuration not given here),8.26
6,C=CCN(CC=C)CCC[NH+](CC=C)CC=C,6.96
7,C[Si](C)(CN)c1ccccc1,10.4
8,Cc1ccc2c(c1)C(CC[NH3+])CN2 (centres undefined),4.1
9,C[NH2+]CCNCC[NH3+],4.64
10,O=C1c2ccccc2CN1C1CC2CCC(C1)N2Cc1ccccc1 (centres undefined),8.71
11,Clc1ccc2[nH]cnc2c1,4.86
12,Cc1cc(C)nc(NS(=O)(=O)c2ccc([NH3+])cc2)n1,-0.89
13,C1CCCNCC1,11
14,C#CCNN,5.46
15,CC(O)CN(CC(C)O)C(C)(C)C (centres undefined),9.36
16,CC(=O)Nc1ccc(S(=O)(=O)Nc2ccccn2)cc1,2.03
17,O=[N+]([O-])c1cnc([O-])nc1[O-],11.5
18,COc1cccc(CN2CC(O[Si](C)(C)C)C2)c1,7.81
19,Nc1cccc2[nH]c(Cc3ccccc3)nc12,8.6
20,Cc1ccc(C2NCCS2)cc1 (centres undefined),5.35
21,CCN(CC)CCNc1cc(Nc2ccc(Cl)cc2)nc(C)n1,9.3
